Source: US20090149440A1, “NOVEL PYRIDONECARBOXYLIC ACID DERIVATIVES OR SALTS THEREOF” (priority 2004, published 2009)
Values after ≈ are worked out from the molar mass of the structure shown. One block for each compound: values may come before it.

What was measured:
[1] = test system: human serum proteins; assay: Binding rate to proteins by ultrafiltration method; type: in vitro ADME; conditions: 5 μg/mL, 37° C. for 30 minutes
Experimental: Binding rate to proteins of the compounds shown in Table 3 was determined by ultrafiltration method. Specifically, a 0.5 mg/mL DMSO solution of each compound was diluted with human serum or a 0.4% phosphate buffer (pH: 7.4 containing 0.5% NaCl) to thereby prepare a 5 μg/mL solution. The human serum solution was incubated at 37° C. for 30 minutes and centrifugally filtrated through a filter (pore size: 0.22 μm). A portion of the serum filtrate and the phosphate buffer solution were applied to an HPLC system, and the peak area of the compound was measured. Binding rate of each compound to human serum proteins was calculated by the following equation 1: Binding rate (%)=(A−B)×100/A (equation 1) A: Peak area (in phosphate buffer) B: Peak area (in serum filtrate)

[2] = test system: MRSA W44; assay: Antibacterial activity, minimum inhibitory concentration (standard method of the Japanese Society of Chemotherapy); type: cell-based; conditions: Staphylococcus aureus
Experimental: (§1) Minimum inhibitory concentration (MIC: μg/mL) of the compounds shown in Table 1 was determined according to the standard method of the Japanese Society of Chemotherapy (CHEMOTHERAPY 29(1), 76, 1981).

[3] = test system: P. mirabilis IFO3849; assay: as above; type: cell-based; conditions: Proteus mirabilis
Experimental: as §1

[4] = test system: S. haemolytlcus 67; assay: as above; type: cell-based
Experimental: as §1

[5] = test system: M. luteus IFO12708; assay: as above; type: cell-based; conditions: Micrococcus luteus
Experimental: as §1

[6] = test system: female ICR mice; assay: Phototoxicity test: ear abnormalities after UV irradiation; type: in vivo; set-up: key to Phototoxicity score: normal (0 point); slight erythema (score 1); medium erythema (score 2); serious erythema or edema (score 3); conditions: 40 mg/10 mL/kg intravenously, UV 320 to 400 nm for four hours
Experimental: Each test compound was intravenously administered (40 mg/10 mL/kg) to female ICR mice (5- to 6-weeks old), and the mice were irradiated with UV-rays (320 to 400 nm, 1.8 mW/cm^2/sec) for four hours. Abnormalities induced in the ear of each mouse were observed immediately after (0 hour), 24 hours after, and 48 hours after the irradiation. The abnormality was evaluated according to the following criteria: normal (0 point), slight erythema (score 1), medium erythema (score 2), and serious erythema or edema (score 3).

[7] = Pharmacokinetics: absorbability after oral administration, serum level; type: in vivo, dogs; conditions: for Cmax / Tmax / half-life / AUC: dog, male beagle dogs, fasted, 10 mg/kg oral, 0.5% methylcellulose suspension, serum; for AUC: read-out: AUCO to 8 h
Experimental: Absorbability of the compounds shown in Table 4 was investigated in dogs. Specifically, a 0.5% methylcellulose suspension of each test compound (10 mg/kg) was forcedly orally administered to 2- to 4-years old male beagle dogs which had been fasted for 16 to 17 hours. The blood was collected from each dog at 0.25, 0.5, 1, 2, 4, 6, 8, and 24 hours after the administration, and the serum level of the test compound was determined to evaluate absorbability of the compound.

SMILES: CC(C)NC1CN(c2c(F)cc3c(=O)c(C(=O)O)cn(-c4nc(N)c(F)cc4F)c3c2Cl)C1 [compound 2, 1-(6-Amino-3,5-difluoropyridin-2-yl)-8-chloro-6-fluoro-7-(3-isopropylaminoazetidin-1-yl)-4-oxo-1,4-dihydroquinolin-3-carboxylic acid]
melting point: ≥ 205 °C (dec.)

SMILES: CC(C)(C)NC1CN(c2c(F)cc3c(=O)c(C(=O)O)cn(-c4nc(N)c(F)cc4F)c3c2Br)C1 [compound 4, 1-(6-Amino-3,5-difluoropyridin-2-yl)-8-bromo-7-(3-tert-butylaminoazetidin-1-yl)-6-fluoro-4-oxo-1,4-dihydroquinolin-3-carboxylic acid]
Binding rate to proteins [1]: 44.9%
melting point: ≥ 225 °C (dec.)

SMILES: CC(C)NC1CN(c2c(F)cc3c(=O)c(C(=O)O)cn(-c4nc(N)c(F)cc4F)c3c2Br)C1 [compound 1, 1-(6-Amino-3,5-difluoropyridin-2-yl)-8-bromo-6-fluoro-7-(3-isopropylaminoazetidin-1-yl)-4-oxo-1,4-dihydroquinolin-3-carboxylic acid]
MIC [2]: 0.03 µg/mL (≈ 0.057 µM)
MIC [3]: 0.25 µg/mL (≈ 0.475 µM)
MIC [4]: 4 µg/mL (≈ 7.6 µM)
MIC [5]: 0.12 µg/mL (≈ 0.228 µM)
Phototoxicity incidence ([6]; 0 hour after irradiation): 0/3
Phototoxicity score ([6]; 0 hour after irradiation): 0
Phototoxicity incidence ([6]; 24 hours after irradiation): 0/3
Phototoxicity score ([6]; 24 hours after irradiation): 0
Phototoxicity incidence ([6]; 48 hours after irradiation): 0/3
Phototoxicity score ([6]; 48 hours after irradiation): 0
Binding rate to proteins [1]: 64.0%

SMILES: CNC1CN(c2c(F)cc3c(=O)c(C(=O)O)cn(-c4nc(N)c(F)cc4F)c3c2Br)C1 [compound 1, 1-(6-amino-3,5-difluoropyridin-2-yl)-8-bromo-6-fluoro-7-(3-methylaminoazetidin-1-yl)-4-oxo-1,4-dihydroquinolin-3-carboxylic acid]
MIC [2]: 0.06 µg/mL (≈ 0.12 µM)
MIC [3]: 0.5 µg/mL (≈ 1 µM)
MIC [4]: 8 µg/mL (≈ 16.1 µM)
MIC [5]: 0.25 µg/mL (≈ 0.502 µM)
Phototoxicity incidence ([6]; 0 hour after irradiation): 0/3
Phototoxicity score ([6]; 0 hour after irradiation): 0
Phototoxicity incidence ([6]; 24 hours after irradiation): 0/3
Phototoxicity score ([6]; 24 hours after irradiation): 0
Phototoxicity incidence ([6]; 48 hours after irradiation): 0/3
Phototoxicity score ([6]; 48 hours after irradiation): 0
Binding rate to proteins [1]: 49.0%

SMILES: CCc1c(N2CC(NC(C)C)C2)c(F)cc2c(=O)c(C(=O)O)cn(-c3nc(N)c(F)cc3F)c12 [compound 3, 1-(6-Amino-3,5-difluoropyridin-2-yl)-6-fluoro-7-(3-isopropylaminoazetidin-1-yl)-8-ethyl-4-oxo-1,4-dihydroquinolin-3-carboxylic acid]
Binding rate to proteins [1]: 44.3%
melting point: ≥ 238 °C (dec.)

SMILES: CNC1CN(c2c(F)cc3c(=O)c(C(=O)O)cn(-c4nc(N)c(F)cc4F)c3c2Br)C1.O=C(O)/C=C\C(=O)O [compound 3, 1-(6-amino-3,5-difluoropyridin-2-yl) 8-bromo-6-fluoro-7-(3-methylaminoazetidin-1-yl)-4-oxo-1,4-dihydroquinolin-3-carboxylic acid maleic acid salt]
Cmax [7]: 1490 ng/mL
Tmax [7]: 1 h
half-life [7]: 3.2 h
AUC [7]: 7600 ng·h/mL

SMILES: CCNC1CN(c2c(F)cc3c(=O)c(C(=O)O)cn(-c4nc(N)c(F)cc4F)c3c2Br)C1 [compound 2, 1-(6-amino-3,5-difluoropyridin-2-yl) 8-bromo-7-(3-ethylaminoazetidin-1-yl)-6-fluoro-4-oxo-1,4-dihydroquinolin-3-carboxylic acid]
MIC [2]: 0.06 µg/mL (≈ 0.117 µM)
MIC [3]: 0.25 µg/mL (≈ 0.488 µM)
MIC [4]: 8 µg/mL (≈ 15.6 µM)
MIC [5]: 0.25 µg/mL (≈ 0.488 µM)
Phototoxicity incidence ([6]; 0 hour after irradiation): 0/3
Phototoxicity score ([6]; 0 hour after irradiation): 0
Phototoxicity incidence ([6]; 24 hours after irradiation): 0/3
Phototoxicity score ([6]; 24 hours after irradiation): 0
Phototoxicity incidence ([6]; 48 hours after irradiation): 0/3
Phototoxicity score ([6]; 48 hours after irradiation): 0
Binding rate to proteins [1]: 62.8%

SMILES: CC(C)NC1CN(c2c(F)cc3c(=O)c(C(=O)O)cn(-c4nc(N)c(F)cc4F)c3c2Br)C1.Cl
melting point: ≥ 210 °C (dec.)

Further lines, results first:

melting point: ≥ 248 °C (dec.)
SMILES: CC(C)Nc1nc(-n2cc(C(=O)O)c(=O)c3cc(F)c(N4CC(NC(C)C)C4)c(Cl)c32)c(F)cc1F [compound 10, 8-Chloro-1-(3,5-difluoro-6-isopropylaminopyridin-2-yl)-6-fluoro-7-(3-isopropylaminoazetidin-1-yl)-4-oxo-1,4-dihydroquinolin-3-carboxylic acid]

Binding rate to proteins [1]: 26.8%
melting point: ≥ 193 °C (dec.)
SMILES: Cc1c(N2CC(NC(C)(C)C)C2)c(F)cc2c(=O)c(C(=O)O)cn(-c3nc(N)c(F)cc3F)c12 [compound 6, 1-(6-Amino-3,5-difluoropyridin-2-yl)-7-(3-tert-butylaminoazetidin-1-yl)-6-fluoro-8-methyl-4-oxo-1,4-dihydroquinolin-3-carboxylic acid]

Cmax [7]: 3730 ng/mL
Tmax [7]: 1 h
half-life [7]: 4.3 h
AUC [7]: 17500 ng·h/mL
SMILES: CCNC1CN(c2c(F)cc3c(=O)c(C(=O)O)cn(-c4nc(N)c(F)cc4F)c3c2Br)C1.O=C(O)/C=C\C(=O)O [compound 4, 1-(6-amino-3,5-difluoropyridin-2-yl) 8-bromo-7-(3-ethylaminoazetidin-1-yl)-6-fluoro-4-oxo-1,4-dihydroquinolin-3-carboxylic acid maleic acid salt]

melting point: ≥ 218 °C (dec.)
SMILES: CNc1nc(-n2cc(C(=O)O)c(=O)c3cc(F)c(N4CC(NC(C)C)C4)c(C)c32)c(F)cc1F [compound 7, 1-(3,5-Difluoro-6-methylaminopyridin-2-yl)-6-fluoro-7-(3-isopropylaminoazetidin-1-yl)-8-methyl-4-oxo-1,4-dihydroquinolin-3-carboxylic acid]

melting point: ≥ 220 °C (dec.)
SMILES: CNc1nc(-n2cc(C(=O)O)c(=O)c3cc(F)c(N4CC(NC(C)C)C4)c(Br)c32)c(F)cc1F [compound 11, 8-Bromo-1-(3,5-difluoro-6-methylaminopyridin-2-yl)-6-fluoro-7-(3-isopropylaminoazetidin-1-yl)-4-oxo-1,4-dihydroquinolin-3-carboxylic acid]

melting point: ≥ 224 °C (dec.)
SMILES: CC(C)NC1CN(c2c(F)cc3c(=O)c(C(=O)O)cn(-c4nc(N)c(F)cc4F)c3c2Br)C1.CS(=O)(=O)O [compound 13, 1-(6-Amino-3,5-difluoropyridin-2-yl)-8-bromo-6-fluoro-7-(3-isopropylaminoazetidin-1-yl)-4-oxo-1,4-dihydroquinolin-3-carboxylic acid methanesulfonic acid salt]

melting point: ≥ 244 °C (dec.)
SMILES: CNc1nc(-n2cc(C(=O)O)c(=O)c3cc(F)c(N4CC(NC(C)C)C4)c(Cl)c32)c(F)cc1F [compound 9, 8-Chloro-1-(3,5-difluoro-6-methylaminopyridin-2-yl)-6-fluoro-7-(3-isopropylaminoazetidin-1-yl)-4-oxo-1,4-dihydroquinolin-3-carboxylic acid]

melting point: ≥ 202 °C (dec.)
SMILES: CCNc1nc(-n2cc(C(=O)O)c(=O)c3cc(F)c(N4CC(NC(C)C)C4)c(C)c32)c(F)cc1F [compound 8, 1-(6-Ethylamino-3,5-difluoropyridin-2-yl)-6-fluoro-7-(3-isopropylaminoazetidin-1-yl)-8-methyl-4-oxo-1,4-dihydroquinolin-3-carboxylic acid]

melting point: ≥ 250 °C (dec.)
SMILES: CC(C)(C)NC1CN(c2c(F)cc3c(=O)c(C(=O)O)cn(-c4nc(N)c(F)cc4F)c3c2Cl)C1 [compound 5, 1-(6-Amino-3,5-difluoropyridin-2-yl)-7-(3-tert-butylaminoazetidin-1-yl)-8-chloro-6-fluoro-4-oxo-1,4-dihydroquinolin-3-carboxylic acid]

Cmax [7]: 5250 ng/mL
Tmax [7]: 1 h
half-life [7]: 5.8 h
AUC [7]: 30900 ng·h/mL
Pharmacokinetics (in words) ([7]; dogs, oral, compared with comparative compounds 3 and 4): remarkably improved
Binding rate to proteins [1]: 64.0%
SMILES: CC(C)NC1CN(c2c(F)cc3c(=O)c(C(=O)O)cn(-c4nc(N)c(F)cc4F)c3c2Br)C1.O=C(O)/C=C\C(=O)O [compound 12, 1-(6-amino-3,5-difluoropyridin-2-yl)-8-bromo-6-fluoro-7-(3-isopropylaminoazetidin-1-yl)-4-oxo-1,4-dihydroquinolin-3-carboxylic acid maleic acid salt]
